Measurements: patent US20070271620A1, “Animal model for type II diabetes mellitus and Syndrome X and methods and uses thereof” (priority 2005, published 2007)
“And” between values parts separate entries of the source, which are not always exact repeats. Identical values can stand only once. Marks after values point to notes of the source that are not given here.

Key:
[1] = test system: cross-bred pigs (Yorkshire×Landrace); assay: Hyperinsulinemic euglycemic/hyperglycemic clamp in STZ diabetic pigs; assay type: in vivo, pig
Method: Protocol 2: insulin-mediated hepatic glucose production and whole body glucose uptake were studied with the hyperinsulinemic (1 or 2 mU/kg/minute) euglycemic clamp technique in combination with 6,6-^2H-glucose infusion in six normal and seven STZ (130 mg/kg) diabetic pigs.
Protocol 3: insulin-mediated whole body glucose disposal was studied with the hyperinsulinemic (2 or 8 mU/kg/minute) euglycemic clamp technique in six normal and six STZ (150 mg/kg) diabetic pigs.
Protocol 4: insulin-mediated whole body glucose disposal under influence of acute mass action of plasma glucose was studied with the hyperinsulinemic (2 mU/kg/minute), euglycemic (6 mmol/L) and hyperglycemic (22 mmol/L) clamp technique in four STZ (110 mg/kg) diabetic pigs.
After overnight fasting, at t=0 minute, insulin was administered as a prime—(17 or 34 mU/kg) continuous (1 or 2 mU/kg/minute) infusion for three hours in normal pigs. Simultaneously, a variable infusion of a 33% D-glucose solution was started and adjusted every ten minutes to maintain the plasma glucose concentration at euglycemic levels and a 6,6-^2H-glucose solution was given as a prime—(216 mg) continuous (3.6 mg/minute). Steady-state conditions were achieved within 90 minutes after initiation of the hyperinsulinemic clamp and steady-state calculations were carried out during the last hour of the clamp (t=120, 135, 150, 165 and 180 minutes). In hyperglycemic diabetic pigs, insulin was given as a prime—(34 or 136 mU/kg) continuous (2 or 8 mU/kg/minute) infusion for five hours. After reaching euglycemic levels, a variable infusion of a 33% D-glucose solution was started and adjusted every ten minutes to maintain the plasma glucose concentration at euglycemia. At t=2 hours, 6,6-^2H-glucose was administered as a prime— (216 mg) continuous (3.6 mg/minute) infusion for the last three hours of the clamp in diabetic pigs. Steady-state conditions were achieved during the last hour of the clamp and steady-state calculations were carried out at (t=240, 255, 270, 285 and 300 minutes).
Hyperinsulinemic hyperglycemic clamp experiments were carried out in diabetic pigs only. After overnight fasting, insulin was given as a prime—(34 mU/kg) continuous (2 mU/kg/minute) infusion for five hours. Simultaneously, a variable infusion of a 33% D-glucose solution was started and adjusted every ten minutes to maintain the plasma glucose concentration at hyperglycemia. Steady-state calculations were carried out during the last hour of the clamp (t=240, 255, 270, 285 and 300 minutes).
6,6-^2H-glucose kinetics: Fasting and insulin-mediated rate of appearance (Ra) of glucose was calculated by dividing the 6,6-^2H-glucose infusion rate (mg/minute) by the plasma 6,6-^2H-glucose enrichment (mg/mg %). Insulin-mediated hepatic glucose production was calculated as measured Ra glucose minus exogenous glucose infusion rate. Under hyperglycemic conditions, the rate of disappearance (Rd) of glucose, or whole body glucose uptake was corrected for urinary glucose excretion. This implies that whole body glucose uptake was calculated as measured Ra glucose minus urinary glucose excretion.

[2] = test system: diabetic pigs; assay: Plasma insulin response after a standard meal in diabetic pigs two and nine weeks after STZ infusion; assay type: in vivo, pig; conditions: STZ 140 mg/kg infused for ten minutes, 25 diabetic pigs
Method: After 24 hours fasting, a standard meal (523 kJ ME/kg BW^0.75) was fed to the pigs and blood was sampled up to 480 minutes after feeding). Pigs were studied two and nine weeks after streptozotocin (STZ) infusion (140 mg/kg for ten minutes). […] However, as judged by the severity of diabetes (quantified by the 24-hour urinary glucose excretion in relation to standard meal feeding), the recovery/regeneration/hypertrophy of beta-cells takes place in the first three to four weeks after STZ infusion and stops after that time period (see FIG. 6).

[3] = pigs, STZ 110 mg/kg, 2 mU/kg/minute clamp at euglycemia
[4] = pigs, STZ 110 mg/kg, 2 mU/kg/minute clamp at hyperglycemia
[5] = pigs, STZ 110 mg/kg, clamp at hyperglycemia
[6] = pigs, STZ 130 mg/kg, insulin clamp 2 mU/kg/minute
[7] = pigs, STZ 150 mg/kg, insulin clamp 8 mU/kg/minute

CN(N=O)C(=O)N[C@H]1C(O)O[C@H](CO)[C@@H](O)[C@@H]1O (mixture of isomers) [STZ, streptozotocin]
Steady-state glucose infusion rate compared to average in normal pigs ([1]; STZ 150 mg/kg, insulin 8 mU/kg/minute): approximately eight-fold lower | Fasting plasma insulin compared to normal and diabetic (1.50 mg STZ/kg) pigs ([1]; STZ 110 and 130 mg/kg, on average): two-fold higher | Steady-state glucose infusion rates compared to average in normal pigs ([1]; STZ 110 to 130 mg/kg, insulin 2 mU/kg/minute): five- to six-fold lower | Reduction in insulin action ([1]; STZ diabetic pigs): ~75% | Fasting plasma insulin, range ([1]; diabetic (150 mg STZ/kg) pigs): 0-6 mU/L | Increase of insulin-mediated whole body glucose disposal at hyperglycemia compared to euglycemia ([1]; pigs, STZ 110 mg/kg, 2 mU/kg/minute clamp): 16% | Fasting plasma glucose [1, 3]: 22.3 ± 2.1 mmol/L | Steady-state clamp glucose infusion rate (insulin-mediated whole body glucose disposal) [1, 3]: 5.1 mg/kg/min and 5.1 ± 1.0 mg/kg/min | Steady-state clamp plasma glucose [1, 3]: 6.0 ± 0.1 mmol/L | Steady-state clamp plasma insulin [1, 3]: 54 ± 16 mU/L | Time to reach euglycemia in diabetic pigs [1, 3]: 139 ± 23 min | Fasting plasma glucose [1, 4]: 23.0 ± 2.4 mmol/L | Insulin-mediated whole body glucose disposal (glucose infusion rate minus urinary glucose excretion) [1, 4]: 5.9 mg/kg/min and 5.9 ± 0.8 mg/kg/min | Steady-state clamp glucose infusion rate [1, 4]: 8.2 ± 0.8*^1) mg/kg/minute | Steady-state clamp plasma glucose [1, 4]: 22.4 ± 2.6 mmol/L | Steady-state clamp plasma insulin [1, 4]: 62 ± 19 mU/L | Fasting plasma insulin ([1]; pigs, STZ 110 mg/kg, clamp at euglycemia): 17 ± 13 mU/L | Fasting plasma insulin [1, 5]: 12 ± 5 mU/L | Fasting plasma insulin, range [1, 5]: range (3-21) mU/L | Fasting plasma insulin, range ([1]; pigs, STZ 130 mg/kg): 1-38 mU/L | Steady-state clamp glucose infusion rate [1, 6]: 5.0 ± 1.4 mg/kg/min | Steady-state clamp plasma glucose [1, 6]: 6.1 ± 0.8 mmol/L | Steady-state clamp plasma insulin [1, 6]: 45 ± 5 mU/L | Time to reach euglycemia in diabetic pigs [1, 6]: 145 ± 22 min | Fasting plasma glucose ([1]; pigs, STZ 130 mg/kg, insulin clamp 2 mU/kg/minute, with 6,6-2H-glucose infusion, mean ± SEM): 21.7 ± 1.1 mmol/L | Fasting plasma insulin ([1]; pigs, STZ 130 mg/kg, insulin clamp 2 mU/kg/minute, mean ± SEM): 9 mU/L | Fasting plasma insulin ([1]; pigs, STZ 130 mg/kg, insulin clamp 2 mU/kg/minute, mean ± SEM, listed as Streptozotocin): 9 ± 7 mU/L | Fasting plasma insulin, range ([1]; pigs, STZ 130 mg/kg, listed as Streptozotocin): range (1-38) mU/L | Fasting plasma insulin [1, 7]: 3 ± 1 mU/L | Steady-state clamp glucose infusion rate [1, 7]: 3.2 ± 1.0 mg/kg/min | Steady-state clamp plasma glucose [1, 7]: 7.5 ± 0.9 mmol/L | Steady-state clamp plasma insulin [1, 7]: 228 ± 36 mU/L | Time to reach euglycemia in diabetic pigs [1, 7]: 243 ± 21 min | Fasting plasma glucose ([1]; pigs, STZ 150 mg/kg, insulin clamp 8 mU/kg/minute, no tracer): 22.0 ± 0.8 mmol/L | Overnight fasting plasma glucose compared to normal pigs ([1]; three diabetic pig groups (STZ 110, 130 and 150 mg/kg), on average): four-fold greater | Area under the curve for the plasma insulin response (0-480 minutes after meal), nine weeks compared to two weeks after STZ infusion [2]: two-fold larger
